This data set deals with Albumin (Homo sapiens, UniProt P02768). Description: In vitro Ka value against human serum albumin; N=1.

Molecules are shown by their SMILES.

Sequence of Albumin (P02768 whole entry): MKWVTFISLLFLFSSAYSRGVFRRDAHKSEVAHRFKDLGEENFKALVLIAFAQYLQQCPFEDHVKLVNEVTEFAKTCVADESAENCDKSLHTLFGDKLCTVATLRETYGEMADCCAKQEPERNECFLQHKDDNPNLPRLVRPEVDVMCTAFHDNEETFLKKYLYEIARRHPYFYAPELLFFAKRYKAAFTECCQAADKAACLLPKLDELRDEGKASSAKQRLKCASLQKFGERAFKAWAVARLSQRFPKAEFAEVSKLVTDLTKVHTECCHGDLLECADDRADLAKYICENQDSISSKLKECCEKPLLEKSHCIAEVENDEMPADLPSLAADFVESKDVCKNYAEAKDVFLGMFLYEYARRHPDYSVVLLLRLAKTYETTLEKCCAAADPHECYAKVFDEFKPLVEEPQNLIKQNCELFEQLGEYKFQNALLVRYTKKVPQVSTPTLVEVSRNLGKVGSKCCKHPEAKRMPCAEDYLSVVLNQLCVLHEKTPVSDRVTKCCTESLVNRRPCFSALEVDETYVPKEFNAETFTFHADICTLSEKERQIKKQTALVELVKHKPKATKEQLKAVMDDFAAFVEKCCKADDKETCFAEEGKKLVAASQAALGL

Compound `CCCCC/C=C\C[C@@H](O)/C=C/C=C/C=C\[C@@H](O)CCCC(=O)O` [LEUKOTRIENE_B4] gave a Ka of 67000 M⁻¹.

The record behind these values is ChEMBL document CHEMBL1142776, “In vitro binding of leukotriene B4 (LTB4) to human serum albumin: evidence from spectroscopic, molecular modeling, and competitive displacement studies” (Bioorg Med Chem Lett, 2005).
